Data on two compounds can be found in US12016829B2, “Pharmaceutical composition and method for treating seizure disorders” (Pike Therapeutics Inc, priority 2019, dated 2024).

Like-named read-outs stand apart in the source and are kept apart here.

The conditions of data set [1]: cited from earlier work.
For data set [2] the following is noted: significant number of patients, cited from earlier work.
Data set [3] in a line: Oral bioavailability, AUC and plasma concentration of CBD. The format is in vivo, patient. From the text:
When a medication is orally administered, its bioavailability generally decreases due to incomplete absorption and first-pass metabolism and may vary from patient to patient. The compositions of the disclosure overcome these problems because in transdermal delivery, active agent is delivered directly into systemic circulation through the skin, and it escapes the first pass hepatic metabolism therefore to achieve the desired therapeutic activity less drug is required, resulting into less adverse effects or side effects.
So, the actual dose delivering to patient upon oral delivery is described in Table 3
So, 50 sqcm patch with 7.5 ug/sqcm/hr flux will deliver 9 mg of drug in one day. And 100 sqcm of patch will deliver 18 mg of drug with same flux profile.

Regarding `CCCCCc1cc(O)c2c(c1)OC(C)(C)c1ccc(C)cc1-2` [Cannabinol], in data set [1] (oral administration, hepatic first pass metabolism), the “share of the administered dose that reaches systemic circulation” value was 10%-20%.

As to `C=C(C)[C@@H]1CCC(C)=C[C@H]1c1c(O)cc(CCCCC)cc1O` [CBD, 2-[(1R,6R)-6-isopropenyl-3-methylcyclohex-2-en-1-yl]-5-pentylbenzene-1,3-diol], the “reduction of total convulsive frequency” value in data set [2] (TRE (Dravet syndrome, myoclonic absence seizures, FIRES)) is given as “greater than 50%”. Moreover, the “seizure status at the end of three months treatment” value in data set [2] is “seizure free”. In addition, in data set [3] (human, in vivo, oral, read-out: average bioavailability taken for calculation), the bioavailability (commonly dose-corrected exposure relative to a reference, in per cent) is 15%. The “Avg. Oral Plasma Concentration” value in data set [3] (oral dose 5 mg/kg/day) turned out to be 10.0 ng/mL; in data set [3] (oral dose 10 mg/kg/day) it was 30.0 ng/mL. For the same compound, the “Oral AUC” value in data set [1] (oral dose 5 mg/kg/day) is 241 ng·h/mL; in data set [1] (oral dose 10 mg/kg/day) it was 722 ng·h/mL.
